# Test results as given in US20250277012A1 (Protagonist Therapeutics, Inc., priority 2021, published 2025).
# Like-named read-outs stand apart in the source and are kept apart here. Positions of bridges follow the written chain, without caps; N, C: chain ends. Non-standard residues stand in square brackets, D forms with d. Residues, ends and D or L forms follow the SMILES beside them. Groups on a side chain read outwards from the residue. *: point of attachment. X1 = C[N+](C)(CCNC(=O)CCCCCCCCCCCCCCCCC(=O)O)CC(=O)*; X5 = CCCCCCCCCCCCCCCC(=O)NCC[N+](C)(C)CC(=O)*; C18 diacid = O=C(O)CCCCCCCCCCCCCCCCC(=O)*; Dip = N[C@H](C(=O)O)C(c1ccccc1)c1ccccc1; Palmitoyl = CCCCCCCCCCCCCCCC(=O)*; NMeI = CC[C@H](C)[C@H](NC)C(=O)O; dNMeF = CN[C@H](Cc1ccccc1)C(=O)O; dNMeQ = CN[C@H](CCC(N)=O)C(=O)O; β3hF = N[C@H](CC(=O)O)Cc1ccccc1; dNMeL = CN[C@H](CC(C)C)C(=O)O; NMeK = CN[C@@H](CCCCN)C(=O)O; Tle = CC(C)(C)[C@H](N)C(=O)O; Isovaleryl = CC(C)CC(=O)*; dNMeS = CN[C@H](CO)C(=O)O; Dap = NC[C@H](N)C(=O)O; AEEA = NCCOCCOCC(=O)O; Ahx = NCCCCCC(=O)O
# Key:
# ferroportin [1] = molecular target: T1, ferroportin (Homo sapiens, UniProt Q9NP59); assay: FPN activity assay: ferroportin-GFP internalization/degradation in HEK293 cells; format: cell-based; set-up: expressed in transfected cells; conditions: read-out: FPN IC50
# T1 sequence (Q9NP59 1-571): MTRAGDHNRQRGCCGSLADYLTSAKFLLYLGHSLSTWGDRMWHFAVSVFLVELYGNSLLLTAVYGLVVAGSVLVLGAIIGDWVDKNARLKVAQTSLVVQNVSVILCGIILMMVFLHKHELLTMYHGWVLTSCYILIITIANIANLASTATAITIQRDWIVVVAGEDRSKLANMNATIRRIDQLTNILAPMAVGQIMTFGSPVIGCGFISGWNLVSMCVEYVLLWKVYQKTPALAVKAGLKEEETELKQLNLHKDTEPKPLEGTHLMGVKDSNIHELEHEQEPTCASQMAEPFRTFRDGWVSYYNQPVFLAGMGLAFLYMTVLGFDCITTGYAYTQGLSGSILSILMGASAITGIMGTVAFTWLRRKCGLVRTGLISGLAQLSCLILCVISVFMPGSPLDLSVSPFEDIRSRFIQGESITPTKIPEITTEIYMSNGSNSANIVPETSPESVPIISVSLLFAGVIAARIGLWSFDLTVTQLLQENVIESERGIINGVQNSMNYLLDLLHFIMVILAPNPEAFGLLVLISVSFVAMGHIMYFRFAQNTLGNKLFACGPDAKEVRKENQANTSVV
# Method: Following internalization, the ferroporin protein is degraded.
# A retro inverse peptide is a peptide with a reversed sequence in all D amino acids. An example is that Hy-Glu-Thr-His-NH2 becomes Hy-DHis-DThr-DGlu-NH2. The EC50 of these reference compounds for ferroportin internalization/degradation was determined according to the FPN activity assay described above. These peptides served as control standards.
# ferroportin [2] = molecular target: T1, ferroportin; assay: T47D cell-based ferroportin internalization assay in presence of mouse serum albumin (MSA); set-up: a human breast carcinoma adherent cell line which endogenously expresses ferroportin; host or cells: T47D
# Outline: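 Peptide potency for inducing ferroportin internalization was measured in T47D cells in the presence of serum albumin. Cells grown in RPMI with fetal bovine serum were seeded in 96-well plates at 80-100 k cells per well in 100 ul and rested overnight. Dilution series of test peptides were preincubated 30 min at room temperature, then added to the cells after the medium was aspirated.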
# [3] = ferroportin-GFP internalization/degradation, HEK293 cells, Table 6E
# [4] = T47D internalization assay in presence of mouse serum albumin (MSA), Table 6E
# [5] = Table 6E, ferroportin-GFP internalization/degradation, at least 18 hours incubation
# [6] = Table 6E, T47D internalization assay with MSA
Structure (SMILES),DC50 (ferroportin [1]; [3]) [nM],IC50 (ferroportin [2]; [4]) [nM],other results
CC(C)CC(=O)N[C@@H](CCC(=O)O)C(=O)N[C@H](C(=O)N[C@@H](Cc1c[nH]cn1)C(=O)N[C@H](C(=O)N1CCC[C@H]1C(=O)N[C@H]1CSSC[C@@H](C(=O)N(C)[C@@H](CCCCNC(=O)COCCOCCNC(=O)COCCOCCNC(=O)[C@H](CN)NC(=O)CCCCCCCCCCCCCCCCC(=O)O)C(=O)N[C@H](C(=O)N[C@H](CCCCN)C(N)=O)C(c2ccccc2)c2ccccc2)NC1=O)C(c1ccccc1)c1ccccc1)[C@@H](C)O [compound 293] (Isovaleryl-ETH[Dip]PCC[NMeK]([AEEA-AEEA-Dap-C18 diacid])[Dip][dK]-NH2; disulfide 6-7),1 to 10,10 to 100,–
CC(C)CC(=O)N[C@@H](CCC(=O)O)C(=O)N[C@H](C(=O)N[C@@H](Cc1c[nH]cn1)C(=O)N[C@H](C(=O)N1CCC[C@H]1C(=O)N[C@H]1CSSC[C@@H](C(=O)N(C)[C@@H](CCCCNC(=O)COCCOCCNC(=O)COCCOCCNC(=O)[C@H](CN)NC(=O)CCCCCCCCCCCCCCCCC(=O)O)C(=O)N[C@H](CC(=O)N[C@H](C(N)=O)C(C)(C)C)Cc2ccccc2)NC1=O)C(c1ccccc1)c1ccccc1)[C@@H](C)O [compound 290] (Isovaleryl-ETH[Dip]PCC[NMeK]([AEEA-AEEA-Dap-C18 diacid])[β3hF][Tle]-NH2; disulfide 6-7),10 to 100,10 to 100,–
CC(C)CC(=O)N[C@@H](CCC(=O)O)C(=O)N[C@H](C(=O)N[C@@H](Cc1cnc[nH]1)C(=O)N[C@H](C(=O)N1CCC[C@H]1C(=O)N[C@H]1CSSC[C@@H](C(=O)N(C)[C@@H](CCCCNC(=O)COCCOCCNC(=O)COCCOCCNC(=O)[C@H](CN)NC(=O)CCCCCCCCCCCCCCCCC(=O)O)C(=O)N[C@H](CC(=O)N[C@H](CCCCN)C(=O)N(C)[C@H](Cc2ccccc2)C(N)=O)Cc2ccccc2)NC1=O)C(c1ccccc1)c1ccccc1)[C@@H](C)O [compound 250] (Isovaleryl-ETH[Dip]PCC[NMeK]([AEEA-AEEA-Dap-C18 diacid])[β3hF][dK][dNMeF]-NH2; disulfide 6-7),10 to 100,1 to 10,–
COC(=O)CC[C@H](NC(=O)CC(C)C)C(=O)N[C@H](C(=O)N[C@@H](Cc1c[nH]cn1)C(=O)N[C@H](C(=O)N1CCC[C@H]1C(=O)N[C@H]1CSSC[C@@H](C(=O)N(C)[C@@H](CCCCNC(=O)[C@H](CN)NC(=O)CCCCCCCCCCCCCCCCC(=O)O)C(=O)N[C@H](C(=O)N[C@H](CCCCN)C(N)=O)C(c2ccccc2)c2ccccc2)NC1=O)C(c1ccccc1)c1ccccc1)[C@@H](C)O [compound 206] (Isovaleryl-E(OMe)TH[Dip]PCC[NMeK]([Dap-C18 diacid])[Dip][dK]-NH2; disulfide 6-7),–,–,DC50 (ferroportin [1]; [5]): 10 to 100 nM; IC50 (ferroportin [2]; [6]): 10 to 100 nM
CCCCCCCCCCCCCCCC(=O)NCC[N+](C)(C)CC(=O)NCCCC[C@@H](C(=O)N[C@H](C(=O)N[C@H](CCCCN)C(N)=O)C(c1ccccc1)c1ccccc1)N(C)C(=O)[C@@H]1CSSC[C@H](NC(=O)[C@@H]2CCCN2C(=O)[C@@H](NC(=O)[C@H](Cc2cnc[nH]2)NC(=O)[C@@H](NC(=O)[C@H](CCC(=O)O)NC(=O)CC(C)C)[C@@H](C)O)C(c2ccccc2)c2ccccc2)C(=O)N1 [compound 194] (Isovaleryl-ETH[Dip]PCC[NMeK](X5)[Dip][dK]-NH2; disulfide 6-7),–,–,DC50 (ferroportin [1]; [5]): 10 to 100 nM; IC50 (ferroportin [2]; [6]): 1 to 10 nM
CCCCCCCCCCCCCCCC(=O)NCCCCCC(=O)NCCCC[C@H](NC(=O)C[C@H](Cc1ccccc1)NC(=O)[C@@H]1CSSC[C@H](NC(=O)CC(C)C)C(=O)N[C@@H]([C@@H](C)O)C(=O)N[C@@H](Cc2c[nH]cn2)C(=O)N[C@@H](C(c2ccccc2)c2ccccc2)C(=O)N2CCC[C@H]2C(=O)N[C@@H](C)C(=O)N[C@@H]([C@@H](C)CC)C(=O)N1)C(=O)N[C@H](CCCCN)C(N)=O [Compd 43] (Isovaleryl-CTH[Dip]PAIC[β3hF]K([Ahx-Palmitoyl])[dK]-NH2; disulfide 1-8),–,–,"DC50 (ferroportin [1]; ferroportin-GFP HEK293 cells, at least 18 hours): 1 to 10 nM; IC50 (ferroportin [2]; T47D cells, 0.5% mouse serum albumin, 1 hr incubation): > 500 nM"
COC(=O)CC[C@H](NC(=O)CC(C)C)C(=O)N[C@H](C(=O)N[C@@H](Cc1c[nH]cn1)C(=O)N[C@H](C(=O)N1CCC[C@H]1C(=O)N[C@H]1CSSC[C@@H](C(=O)N(C)[C@@H](CCCCNC(=O)CCCCCNC(=O)C[N+](C)(C)CCNC(=O)CCCCCCCCCCCCCCCCC(=O)O)C(=O)N[C@H](C(=O)N[C@H](CCCCN)C(N)=O)C(c2ccccc2)c2ccccc2)NC1=O)C(c1ccccc1)c1ccccc1)[C@@H](C)O [compound 232] (Isovaleryl-E(OMe)TH[Dip]PCC[NMeK]([Ahx-X1])[Dip][dK]-NH2; disulfide 6-7),10 to 100,10 to 100,–
CC(C)CC(=O)N[C@@H](CCC(=O)O)C(=O)N[C@H](C(=O)N[C@@H](Cc1cnc[nH]1)C(=O)N[C@H](C(=O)N1CCC[C@H]1C(=O)N[C@H]1CSSC[C@@H](C(=O)N(C)[C@@H](CCCCNC(=O)COCCOCCNC(=O)COCCOCCNC(=O)[C@H](CN)NC(=O)CCCCCCCCCCCCCCCCC(=O)O)C(=O)N[C@H](CC(=O)N[C@H](CCCCN)C(=O)N(C)[C@H](CO)C(N)=O)Cc2ccccc2)NC1=O)C(c1ccccc1)c1ccccc1)[C@@H](C)O [compound 247] (Isovaleryl-ETH[Dip]PCC[NMeK]([AEEA-AEEA-Dap-C18 diacid])[β3hF][dK][dNMeS]-NH2; disulfide 6-7),10 to 100,1 to 10,–
CC(C)CC(=O)N[C@@H](CCC(=O)O)C(=O)N[C@H](C(=O)N[C@@H](Cc1c[nH]cn1)C(=O)N[C@H](C(=O)N1CCC[C@H]1C(=O)N[C@H]1CSSC[C@@H](C(=O)N(C)[C@@H](CCCCNC(=O)COCCOCCNC(=O)COCCOCCNC(=O)[C@H](CN)NC(=O)CCCCCCCCCCCCCCCCC(=O)O)C(=O)N[C@H](CC(=O)N[C@H](CCCCN)C(=O)N(C)[C@H](CCC(N)=O)C(N)=O)Cc2ccccc2)NC1=O)C(c1ccccc1)c1ccccc1)[C@@H](C)O [compound 248] (Isovaleryl-ETH[Dip]PCC[NMeK]([AEEA-AEEA-Dap-C18 diacid])[β3hF][dK][dNMeQ]-NH2; disulfide 6-7),10 to 100,10 to 100,–
CC(C)CC(=O)N[C@@H](CCC(=O)O)C(=O)N[C@H](C(=O)N[C@@H](Cc1cnc[nH]1)C(=O)N[C@H](C(=O)N1CCC[C@H]1C(=O)N[C@H]1CSSC[C@@H](C(=O)N(C)[C@@H](CCCCNC(=O)COCCOCCNC(=O)COCCOCCNC(=O)[C@H](CN)NC(=O)CCCCCCCCCCCCCCCCC(=O)O)C(=O)N[C@H](CC(=O)N[C@H](CCCCN)C(=O)N(C)[C@H](CC(C)C)C(N)=O)Cc2ccccc2)NC1=O)C(c1ccccc1)c1ccccc1)[C@@H](C)O [compound 249] (Isovaleryl-ETH[Dip]PCC[NMeK]([AEEA-AEEA-Dap-C18 diacid])[β3hF][dK][dNMeL]-NH2; disulfide 6-7),10 to 100,10 to 100,–
CC[C@H](C)[C@@H](C(N)=O)N(C)C(=O)[C@@H](CCCCN)NC(=O)C[C@H](Cc1ccccc1)NC(=O)[C@H](CCCCNC(=O)COCCOCCNC(=O)COCCOCCNC(=O)[C@H](CN)NC(=O)CCCCCCCCCCCCCCCCC(=O)O)N(C)C(=O)[C@@H]1CSSC[C@H](NC(=O)[C@@H]2CCCN2C(=O)[C@@H](NC(=O)[C@H](Cc2c[nH]cn2)NC(=O)[C@@H](NC(=O)[C@H](CCC(=O)O)NC(=O)CC(C)C)[C@@H](C)O)C(c2ccccc2)c2ccccc2)C(=O)N1 [compound 262] (Isovaleryl-ETH[Dip]PCC[NMeK]([AEEA-AEEA-Dap-C18 diacid])[β3hF][dK][NMeI]-NH2; disulfide 6-7),10 to 100,10 to 100,–
CC(C)CC(=O)N[C@@H](CCC(=O)O)C(=O)N[C@H](C(=O)N[C@@H](Cc1cnc[nH]1)C(=O)N[C@H](C(=O)N1CCC[C@H]1C(=O)N[C@H]1CSSC[C@@H](C(=O)N(C)[C@@H](CCCCNC(=O)COCCOCCNC(=O)COCCOCCNC(=O)[C@H](CN)NC(=O)CCCCCCCCCCCCCCCCC(=O)O)C(=O)N[C@H](C(=O)N(C)[C@@H](CCCCN)C(N)=O)C(c2ccccc2)c2ccccc2)NC1=O)C(c1ccccc1)c1ccccc1)[C@@H](C)O [compound 275] (Isovaleryl-ETH[Dip]PCC[NMeK]([AEEA-AEEA-Dap-C18 diacid])[Dip][NMeK]-NH2; disulfide 6-7),10 to 100,10 to 100,–
COC(=O)CC[C@H](NC(=O)CC(C)C)C(=O)N[C@H](C(=O)N[C@@H](Cc1c[nH]cn1)C(=O)N[C@H](C(=O)N1CCC[C@H]1C(=O)N[C@H]1CSSC[C@@H](C(=O)N[C@@H](CCCCNC(=O)CCCCCNC(=O)C[N+](C)(C)CCNC(=O)CCCCCCCCCCCCCCCCC(=O)O)C(=O)N[C@H](CC(=O)N[C@H](CCCCN)C(N)=O)Cc2ccccc2)NC1=O)C(c1ccccc1)c1ccccc1)[C@@H](C)O [compound 311] (Isovaleryl-E(OMe)TH[Dip]PCCK([Ahx-X1])[β3hF][dK]-NH2; disulfide 6-7),10 to 100,10 to 100,–
